Source: patent publication US20240182461A1, “SELECTIVE ANGIOTENSIN II RECEPTOR LIGANDS” (priority 2021, published 2024)
Read-outs that look alike come from different tables or passages of the source.

Columns and labels:
[1] = Metabolic stability in pooled human liver microsomes; format: in vitro ADME; settings: human liver microsomes 0.5 mg/mL, 1 μM compound, 37° C.
[2] = target: T1, human recombinant AT2 receptor (Homo sapiens, UniProt P50052); experiment: Radioligand binding to AT2 receptor (Eurofins radiometric scintillation assay); settings: ligand 125I CGP 42112A; for IC50: 1, 10, 100 and 1000 nM, read-out: AT2 GraFit IC50; for Ki: seven-point dose-response curve, read-out: AT2R Ki
T1 construct: Eurofins (protocol only) ITEM26
T1 sequence (P50052 1-363): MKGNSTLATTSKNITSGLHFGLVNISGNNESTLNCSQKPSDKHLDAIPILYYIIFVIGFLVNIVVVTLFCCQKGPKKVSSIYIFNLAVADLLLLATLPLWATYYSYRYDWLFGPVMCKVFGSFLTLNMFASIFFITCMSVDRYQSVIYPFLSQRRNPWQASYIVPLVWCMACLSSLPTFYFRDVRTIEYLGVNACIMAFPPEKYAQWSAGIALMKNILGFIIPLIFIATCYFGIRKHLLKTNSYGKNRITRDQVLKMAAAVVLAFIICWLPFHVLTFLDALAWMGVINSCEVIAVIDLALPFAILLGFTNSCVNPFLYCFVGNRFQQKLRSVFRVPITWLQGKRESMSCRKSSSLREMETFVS

[3] = target: T2, human recombinant AT1 receptor (Homo sapiens, UniProt P30556); experiment: Radioligand binding to AT1 receptor (Eurofins radiometric scintillation assay); settings: 1 and 10 μM; ligand 125I(sar1,Ile8)-AT-II
T2 construct: Eurofins (protocol only) ITEM24
T2 sequence (P30556 1-359): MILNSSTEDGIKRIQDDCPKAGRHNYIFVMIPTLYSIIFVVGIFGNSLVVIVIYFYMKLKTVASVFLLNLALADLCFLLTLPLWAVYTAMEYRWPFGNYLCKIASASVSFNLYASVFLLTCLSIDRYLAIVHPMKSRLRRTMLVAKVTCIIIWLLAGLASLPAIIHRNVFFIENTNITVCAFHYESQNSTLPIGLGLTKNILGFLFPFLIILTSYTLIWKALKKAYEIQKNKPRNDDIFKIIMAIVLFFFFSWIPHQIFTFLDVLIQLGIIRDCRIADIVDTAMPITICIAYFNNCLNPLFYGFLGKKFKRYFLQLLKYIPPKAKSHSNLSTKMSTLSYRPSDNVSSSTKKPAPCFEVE

CYP2C9 [4] = target: T3, CYP2C9 (Homo sapiens, UniProt P11712); experiment: CYP inhibition in human liver microsomes, CYP2C9; format: in vitro ADME; design: incubated with human liver microsomes; from tissue; host or cells: human liver microsomes; settings: probe diclofenac, substrate diclofenac, read-out: CYP2C9 Inh %
CYP2C8 = target: T4, CYP2C8 (Homo sapiens, UniProt P10632); experiment: CYP inhibition in human liver microsomes, CYP2C8; format: in vitro ADME; settings: probe paclitaxel and amodiaquine, substrates paclitaxel and amodiaquine, read-out: CYP2C8 Inh %
T4 construct: incubated with human liver microsomes; from tissue; host or cells: human liver microsomes
T4 sequence (P10632 1-490): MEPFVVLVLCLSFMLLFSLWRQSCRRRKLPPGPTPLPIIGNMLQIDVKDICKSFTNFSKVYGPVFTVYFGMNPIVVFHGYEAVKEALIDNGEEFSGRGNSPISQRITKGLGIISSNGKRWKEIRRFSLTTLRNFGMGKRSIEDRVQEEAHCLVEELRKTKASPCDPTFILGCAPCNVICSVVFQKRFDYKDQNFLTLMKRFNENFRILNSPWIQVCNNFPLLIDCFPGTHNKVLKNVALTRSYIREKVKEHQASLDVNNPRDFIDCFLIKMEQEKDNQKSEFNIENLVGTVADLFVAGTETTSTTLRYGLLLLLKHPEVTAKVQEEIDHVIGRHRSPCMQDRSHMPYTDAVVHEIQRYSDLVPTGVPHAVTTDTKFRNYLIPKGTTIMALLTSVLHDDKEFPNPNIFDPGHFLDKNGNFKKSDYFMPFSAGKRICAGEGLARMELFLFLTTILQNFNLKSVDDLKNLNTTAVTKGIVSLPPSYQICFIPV

CYP3A4&5 = experiment: CYP inhibition in human liver microsomes, CYP3A4&5 testosterone; format: in vitro ADME; settings: probe testosterone, substrate testosterone, read-out: CYP3A4&5 testosterone Inh %
CYP1A = target: T5, CYP1A (Homo sapiens, UniProt P05177); experiment: CYP inhibition in human liver microsomes, CYP1A; format: in vitro ADME; settings: probe phenacetin, substrate phenacetin, read-out: CYP1A Inh %
T5 construct: incubated with human liver microsomes; from tissue; host or cells: human liver microsomes

CYP3A4 [5] = target: T6, CYP3A4 (Homo sapiens, UniProt P08684); experiment: CYP inhibition in human liver microsomes, CYP3A4 midazolam; format: in vitro ADME; design: incubated with human liver microsomes; from tissue; host or cells: human liver microsomes; settings: probe midazolam, substrate midazolam, read-out: CYP3A4 midazolam Inh %
CYP2B6 = target: T7, CYP2B6 (Homo sapiens, UniProt P20813); experiment: CYP inhibition in human liver microsomes, CYP2B6; format: in vitro ADME; settings: probe bupropion, substrate bupropion, read-out: CYP2B6 Inh %
T7 construct: incubated with human liver microsomes; from tissue; host or cells: human liver microsomes
T7 sequence (P20813 1-491): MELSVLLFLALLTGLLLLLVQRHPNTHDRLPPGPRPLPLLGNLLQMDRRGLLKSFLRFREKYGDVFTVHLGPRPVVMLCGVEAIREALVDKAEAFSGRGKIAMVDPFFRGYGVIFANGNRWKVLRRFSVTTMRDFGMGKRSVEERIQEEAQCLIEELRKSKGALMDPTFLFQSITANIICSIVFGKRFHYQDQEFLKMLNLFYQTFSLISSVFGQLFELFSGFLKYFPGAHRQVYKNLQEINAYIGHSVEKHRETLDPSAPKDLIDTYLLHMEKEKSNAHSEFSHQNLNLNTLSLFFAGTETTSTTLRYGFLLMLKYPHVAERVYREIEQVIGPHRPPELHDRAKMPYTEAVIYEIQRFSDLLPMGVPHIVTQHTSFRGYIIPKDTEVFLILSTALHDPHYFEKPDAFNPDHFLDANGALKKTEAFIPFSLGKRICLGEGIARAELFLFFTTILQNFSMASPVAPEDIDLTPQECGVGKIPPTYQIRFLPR

CYP2C19 = target: T8, CYP2C19 (Homo sapiens, UniProt P33261); experiment: CYP inhibition in human liver microsomes, CYP2C19; format: in vitro ADME; settings: probe omeprazole, substrate omeprazole, read-out: CYP2C19 Inh %
T8 construct: incubated with human liver microsomes; from tissue; host or cells: human liver microsomes

CYP2D6 = target: T9, CYP2D6 (Homo sapiens, UniProt P10635); experiment: CYP inhibition in human liver microsomes, CYP2D6; format: in vitro ADME; settings: probe dextromethorphan, substrate dextromethorphan, read-out: CYP2D6 Inh %
T9 construct: incubated with human liver microsomes; from tissue; host or cells: human liver microsomes

[6] = Metabolic hydrolysis of C21 found during development; format: in vitro ADME
CYP3A4 [7] = target: T6, CYP3A4; experiment: CYP inhibition of C21 found during development; format: in vitro ADME
CYP2C9 [8] = target: T3, CYP2C9; experiment: CYP inhibition of C21 found during development; format: in vitro ADME
[9] = with 1 mM NADPH, read-out: T1/2, + NaDPH
[10] = without NADPH, read-out: T1/2, no NaDPH

T6 sequence (P08684 whole entry): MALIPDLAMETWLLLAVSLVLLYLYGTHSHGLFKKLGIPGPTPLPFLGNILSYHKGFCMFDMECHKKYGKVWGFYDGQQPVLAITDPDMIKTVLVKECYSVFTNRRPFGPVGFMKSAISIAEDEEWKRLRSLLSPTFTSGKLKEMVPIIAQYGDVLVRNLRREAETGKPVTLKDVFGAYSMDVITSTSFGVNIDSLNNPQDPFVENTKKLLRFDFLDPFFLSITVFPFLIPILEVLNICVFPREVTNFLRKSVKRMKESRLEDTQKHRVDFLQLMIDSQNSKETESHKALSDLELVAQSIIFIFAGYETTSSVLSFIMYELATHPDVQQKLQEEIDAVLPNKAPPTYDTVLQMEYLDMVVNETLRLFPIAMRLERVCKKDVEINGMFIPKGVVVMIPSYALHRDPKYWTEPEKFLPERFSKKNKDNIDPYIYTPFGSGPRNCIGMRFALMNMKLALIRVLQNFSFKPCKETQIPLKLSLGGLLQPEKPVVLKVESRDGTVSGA
T3 sequence (P11712 whole entry): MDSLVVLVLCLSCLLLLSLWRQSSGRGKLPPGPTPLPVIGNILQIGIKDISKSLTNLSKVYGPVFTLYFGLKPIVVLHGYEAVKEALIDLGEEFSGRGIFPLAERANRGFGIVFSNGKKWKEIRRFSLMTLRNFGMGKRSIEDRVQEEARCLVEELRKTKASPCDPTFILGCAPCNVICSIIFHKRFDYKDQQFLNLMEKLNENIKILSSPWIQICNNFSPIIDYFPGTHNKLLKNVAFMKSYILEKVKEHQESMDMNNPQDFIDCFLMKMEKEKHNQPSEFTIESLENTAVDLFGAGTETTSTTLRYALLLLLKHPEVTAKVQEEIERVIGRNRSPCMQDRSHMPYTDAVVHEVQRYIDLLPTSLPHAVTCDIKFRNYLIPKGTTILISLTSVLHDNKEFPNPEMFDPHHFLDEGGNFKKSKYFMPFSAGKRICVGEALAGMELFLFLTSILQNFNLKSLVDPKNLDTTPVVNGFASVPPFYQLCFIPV
T9 sequence (P10635 whole entry): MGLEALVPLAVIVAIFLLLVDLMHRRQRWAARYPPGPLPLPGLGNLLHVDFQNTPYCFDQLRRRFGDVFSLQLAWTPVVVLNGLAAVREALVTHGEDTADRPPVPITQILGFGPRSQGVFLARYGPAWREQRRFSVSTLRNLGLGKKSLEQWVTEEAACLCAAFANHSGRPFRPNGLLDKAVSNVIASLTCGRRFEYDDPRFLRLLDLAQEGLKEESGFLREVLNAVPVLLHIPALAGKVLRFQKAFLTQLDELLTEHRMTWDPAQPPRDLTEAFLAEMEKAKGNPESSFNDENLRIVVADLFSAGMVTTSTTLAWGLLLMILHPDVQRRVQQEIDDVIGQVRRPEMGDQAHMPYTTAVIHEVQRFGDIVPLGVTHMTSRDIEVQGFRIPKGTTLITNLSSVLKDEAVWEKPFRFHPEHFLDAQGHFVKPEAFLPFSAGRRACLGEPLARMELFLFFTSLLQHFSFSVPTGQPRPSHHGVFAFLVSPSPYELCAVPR
T8 sequence (P33261 whole entry): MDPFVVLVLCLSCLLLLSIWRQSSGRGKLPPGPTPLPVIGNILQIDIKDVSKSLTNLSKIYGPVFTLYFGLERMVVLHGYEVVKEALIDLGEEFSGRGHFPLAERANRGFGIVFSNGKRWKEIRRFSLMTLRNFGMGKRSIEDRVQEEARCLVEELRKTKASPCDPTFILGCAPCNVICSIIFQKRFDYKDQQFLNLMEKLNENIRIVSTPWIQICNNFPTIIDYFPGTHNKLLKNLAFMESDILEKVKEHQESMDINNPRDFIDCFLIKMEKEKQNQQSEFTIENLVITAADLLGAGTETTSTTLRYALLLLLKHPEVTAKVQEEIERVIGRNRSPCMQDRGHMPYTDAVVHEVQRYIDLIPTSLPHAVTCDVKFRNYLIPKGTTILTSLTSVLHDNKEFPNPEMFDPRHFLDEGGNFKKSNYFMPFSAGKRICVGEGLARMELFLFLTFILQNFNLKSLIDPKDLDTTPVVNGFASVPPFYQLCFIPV
T5 sequence (P05177 whole entry): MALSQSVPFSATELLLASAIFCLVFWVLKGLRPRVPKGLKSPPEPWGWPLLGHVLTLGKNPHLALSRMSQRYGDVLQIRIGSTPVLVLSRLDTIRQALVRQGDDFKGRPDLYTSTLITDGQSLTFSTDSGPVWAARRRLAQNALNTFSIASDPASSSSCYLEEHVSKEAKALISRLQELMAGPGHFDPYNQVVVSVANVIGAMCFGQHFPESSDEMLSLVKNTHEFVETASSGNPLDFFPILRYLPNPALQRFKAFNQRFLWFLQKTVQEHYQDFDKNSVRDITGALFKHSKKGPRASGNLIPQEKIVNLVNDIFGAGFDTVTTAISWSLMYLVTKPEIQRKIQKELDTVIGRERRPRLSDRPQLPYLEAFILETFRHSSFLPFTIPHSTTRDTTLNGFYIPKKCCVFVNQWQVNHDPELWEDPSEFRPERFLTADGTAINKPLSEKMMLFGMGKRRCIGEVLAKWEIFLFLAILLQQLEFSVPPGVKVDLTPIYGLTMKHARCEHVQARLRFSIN

Compound | half-life at 1 μM [1, 9] | half-life at 1 μM [1, 10] | IC50 [2] | Ki [2] | IC50 [3] | other results
CC(C)Cc1ccc(S(=O)(=O)NC(=O)OCCO)c(-c2ccc(Cn3ccnc3C(C)(C)C)c(F)c2)c1 [Example 17, 2-Hydroxyethyl (4′-((2-(tert-butyl)-1H-imidazol-1-yl)methyl)-3′-fluoro-5-isobutyl-[1,1′-biphenyl]-2-yl)sulfonylcarbamate] | > 60 min | > 60 min | 0.274 nM | 0.14 nM | – | –
COC(=O)NS(=O)(=O)c1ccc(CC(C)C)cc1-c1ccc(Cn2ccnc2C)cc1 [Example 18, Methyl (5-isobutyl-4′-((2-methyl-1H-imidazol-1-yl)methyl)-[1,1′-biphenyl]-2-yl)sulfonylcarbamate] | > 60 min | > 60 min | 1.78 nM | 0.93 nM | – | –
CC(C)Cc1nc(-c2ccc(Cn3ccnc3C(C)(C)C)cc2)c(S(=O)(=O)NC(=O)NCc2cccs2)s1 [Example 1, 4-(4-((2-(tert-Butyl)-1H-imidazol-1-yl)methyl)phenyl)-2-isobutyl-N-((thiophen-2-ylmethyl)carbamoyl)thiazole-5-sulfonamide] | – | – | 13 nM | 6.5 nM | 1350 nM | –
CCCCOC(=O)NS(=O)(=O)c1ccc(CC(C)C)cc1-c1ccc(Cn2ccnc2C(C)(C)C)c(F)c1 [Example 4, Butyl ((4′-((2-(tert-butyl)-1H-imidazol-1-yl)methyl)-3′-fluoro-5-isobutyl-[1,1′-biphenyl]-2-yl)sulfonyl)carbamate] | 2 min | 4 min | 0.49 nM | 0.25 nM | 1200 nM | inhibition at 10 µM (CYP2C9 [4]): 92.8%; inhibition at 10 µM (CYP2C8): 87.5%; inhibition at 10 µM (CYP3A4&5): 23.5%; inhibition at 10 µM (CYP1A): -35.8%; inhibition at 10 µM (CYP3A4 [5]): 18.1%; inhibition at 10 µM (CYP2B6): 62.4%; inhibition at 10 µM (CYP2C19): 60.4%; inhibition at 10 µM (CYP2D6): 26.5%
CC(C)Cc1ccc(S(=O)(=O)NC(=O)NCc2ccccn2)c(-c2ccc(Cn3ccnc3C(C)(C)C)cc2)c1 [Example 2, 4′-((2-(tert-Butyl)-1H-imidazol-1-yl)methyl)-5-isobutyl-N-((pyridin-2-ylmethyl)carbamoyl)-[1,1′-biphenyl]-2-sulfonamide] | – | – | 0.43 nM | 0.22 nM | 4600 nM | –
CCCCOC(=O)NS(=O)(=O)c1sc(CC(C)C)cc1-c1ccc(Cn2ccnc2)cc1 [Example C21, N-butyloxycarbonyl-3-(4-imidazol-1-ylmethylphenyl)-5-isobutylthiophene-2-sulfon-amide] | – | – | – | – | – | metabolic hydrolysis [6]: rapidly hydrolysed to an inactive sulfonamide metabolite; inhibition of CYP 3A4 (CYP3A4 [7]): potent inhibitor; inhibition of CYP 2C9 (CYP2C9 [8]): potent inhibitor
